Measured values from patent US9549928B2, “Muscarinic agonists as enhancers of cognitive flexibility” (THE UNIVERSITY OF TOLEDO, priority 2011, dated 2017).

Tests used:
Type in all cases: in vivo, rat
[1] = system: male Long-Evans rats; assay: Visual cue discrimination acquisition and switch to place discrimination (strategy switching); conditions: 0.003 mg/kg i.p. before switch phase; vs controls
Method: In a separate experiment, the effect of CDD-0102A on initial learning of a visual cue strategy and switch to a place strategy was determined. All other aspects of the testing procedure were as described above. The treatment groups in this experiment were as follows: 1) saline—saline (n=8); 2) saline—CDD-0102A 0.003 mg/kg (n=7); 3) saline—CDD-0102A 0.03 mg/kg (n=7); 4) vehicle—CDD-0102A 0.1 mg/kg (n=8); 5) CDD-0102A 0.03 mg/kg-saline (n=7); or 6) CDD-0102A 0.01 mg/kg-saline (n=8).
These same types of errors were calculated in a similar manner for the experiment in which rats first learned a visual cue strategy and then switched to a place strategy.
In the spontaneous alternation task, a one-way analysis of variance was used to identify differences in percent alternation scores and number of arm entries across groups. Newman-Keuls post-hoc tests were used to compare treatment and control group measures. In the discrimination learning tests, one-way analyses of variance were used to identify differences in trials to criterion for acquisition and strategy switching. Separate analyses of variance were carried out to determine group differences in perseverative, regressive, and never-reinforced errors. Newman-Keuls post-hoc tests were used to compare differences between treatment groups.

[2] = system: male Long-Evans rats; assay: Delayed spontaneous alternation in a 4-arm cross maze (30 second delay); conditions: i.p.
Method: For behavioral studies, male Long-Evans rats were purchased from Harlan (Indianapolis, Ind.) weighing between 325-375 g. Rats were individually housed in plastic cages (20.3 cm×20.3 cm×41.9 cm) in an environmentally controlled room (23° C., 30% humidity) on a 12 h:12 h light:dark cycle (lights on at 7:00 am). After at least four days to acclimate to the colony room, rats were handled for 10 minutes per day for four days to adjust to being handled during training and testing. At the same time rats began to be handled, rats were also food restricted to reduce their weight to 85-90% of their ad libitum weight. Rats had free access to water throughout the experiment. Animal care and use conformed to the guidelines of the National Institutes of Health Guide for the Care and Use of Laboratory Animals, and was approved by the Institutional Laboratory Animal Care and Use Committee at the University of Illinois at Chicago.
All behavioral testing occurred in a cross maze made of translucent black acrylic. Each arm measured 55 cm long, 10 cm wide, and 15 cm in height. A circular food well, with a diameter of 3.2 cm and a depth of 1.6 cm was placed 3 cm from the end of each arm. […]
In this test, rats were placed in the testing room 5 minutes prior to behavioral testing. […] The number and sequence of arm entries was recorded. An arm entry was recorded when all four paws entered an arm. […]

[3] = system: male Long-Evans rats; assay: Salivation studies, salivary output over 60 minutes after i.p. administration
Method: For studies of salivation, male Long-Evans rats were purchased from Charles River Laboratories (Wilmington, Mass.) weighing between 250-425 g. Animals were kept in a vivarium on a 12-h light/dark cycle. Humidity was maintained at 30-70%, and temperature was maintained at 20-24° C. All procedures were approved by the Institutional Animal Care and Use Committee at Mithridion, Inc.
Salivation was quantified in rats following i.p. administration of CDD-0102A. Rats were first anesthetized with isoflurane, and then dosed with CDD-0102 by i.p. injection. Anesthesia was maintained by a nose cone that delivered 1.5-2.5% isoflurane in 500 ml/minute of oxygen. CDD-0102A was dissolved in phosphate-buffered saline and the injection volume was 2 ml/kg. The hind limbs of anesthetized animals were taped to the top of an incline (25° grade) so that the animal was oriented with its head near the bottom of the slope and its dorsal-surface oriented upward. Body temperature was monitored by a rectal thermometer, and maintained at 36-38° C. by a heating pad. The animal's nose was inserted into a nose cone for maintaining anesthesia while the entire mouth remained outside this nose cone. Pre-weighed filter paper (approximately 5×5 cm) was placed underneath the mouth to absorb the draining saliva. After 5 minutes, the saliva-wetted filter paper was weighed and replaced with fresh, pre-weighed filter paper. Total salivary output was calculated by subtracting the mass of the filter paper from the combined mass of paper plus saliva as collected over 60 minutes.

[4] = system: normal rats; assay: Example 2: attentional set-shifting model, visual cue strategy shifted to place strategy; conditions: injection before acquisition (FIG. 8A)
Source text: The whole experiment was repeated with the rats learning first a visual cue strategy and then being switched to a place strategy.

[5] = system: normal rats; assay: Example 2: attentional set-shifting model, place strategy shifted to visual cue strategy; conditions: injection before acquisition (FIG. 7A)
Source text: The beneficial effects of CDD-0102A in the rat model of cognitive flexibility are among the strongest evidence providing the scientific rationale for CDD-0102A in the treatment of PSP. The inventors have developed several models of cognitive flexibility, including the model of attentional set shifting involving an extradimensional set shift described here. The model involves a place-visual cue task. Rats first learned to use a place strategy—always to enter the same arm to receive a food reward. Criterion was set at 10 consecutive correct trials. The following day, rats had to inhibit the place strategy and to learn a new visual cue strategy to receive the reward. Local visual cues in the maze arms included a black board in one arm and white board in the other arm. The cues were switched between the choice arms randomly across trials so the same cue was not always in the same location. The rat had to choose the arm that contained a particular color cue (e.g., black) in order to receive the reward. The criterion again was set at 10 consecutive correct trials.
Rats received either saline (N=3) or CDD-0102A at various doses 30 minutes prior to testing.

[6] = system: male Long-Evans rats; assay: Place discrimination acquisition and switch to visual cue discrimination (strategy switching); conditions: i.p.
Method: A different group of rats was used for the discrimination learning and strategy switching tests from that used in the delayed spontaneous alternation test. Prior to testing, rats were food-restricted to maintain their weight at 85% of their free-feed weight, handled and trained in the maze to obtain half piece of Froot Loops® cereal in the cross-maze.
Following training, each rat was tested across two consecutive days. In the first experiment each rat had to learn a place discrimination. Rats were started in a pseudorandom manner from one of two different arms such that any start arm was not used more than 3 consecutive trials. The two start arms (“east” and “west”) were always opposite each other. A black plastic block was placed in the entrance of the maze arm opposite to that of the start arm, giving the maze a T-shape. Thus, the same two choice arms were used no matter what start arm was used. A rat was started in the stem arm with only one of the two choice arms baited. In the acquisition phase, one choice arm or place was designated the reinforced arm which contained a ½ piece of cereal reinforcement on each trial. In this phase, a rat was required to enter the reinforced arm containing a ½ piece of cereal. […]
In the switch phase of each experiment, the errors committed were separated into different categories and analyzed. […]

- salivary output over 60 minutes ([3]; 0.1 mg/kg i.p.): no salivation
- salivary output over 60 minutes ([3]; 5 mg/kg i.p. (most salivation), mean ± SEM): 4,685±449 μl
- salivary output over 60 minutes ([3]; 10 mg/kg i.p., compared with 5 mg/kg dose, P>0.5): not significantly different
- separation between dose enhancing place-visual cue task (0.03 mg/kg ip) and dose producing half-maximum salivation ([3]; efficacious dose lower than dose producing half-maximum salivation): approximately 100 fold
- lowest dose that produced salivation ([3]; i.p.): 0.3 mg/kg
Compound: CCc1noc(C2CN=CNC2)n1 (stereo not shown) [CDD-0102A, 5-(3-ethyl-1,2,4-oxadiazol-5-yl)-1,4,5,6-tetrahydropyrimidine]
- trials to criterion, switch to place strategy [1]: no significant effect
- dose at which significant improvement in memory function was observed [2]: ≥ 0.1 mg/kg
- acquisition of the visual-cue strategy [4]: no effect
- acquisition of the place-cue strategy [5]: no effect
- dose at which effect on strategy switching is maximal [6]: 0.03 mg/kg
